Results from US6331642A, “Vitamin D3 analogs” (Hoffmann-La Roche Inc., priority 2000, dated 2001).
Where two headings read alike, the source gives them in different places.

What was measured:
p21^waf1 = test: Western blot analysis, p21^waf1 in MCF-7 cells; type: cell-based; conditions: Homo sapiens, read-out: increase in expression of p21^waf1
Method: (§1) Western Blot Analysis. Cells were washed twice with PBS, suspended in Lysis buffer (50 mM Tris Ph 8.0, 150 mM NaCl, 0.1% SDS, 0.5% sodium deoxycholate, 1% NP40, 100 μg/ml phenylmethylsulfonyl fluoride, 2 μg/ml aprotinin, 1 μg/ml pepstatin and 10 μg/ml leupeptin), and placed on ice for 30 minutes. After centrifugation at 15,000 g for 20 minutes at 4° C., the supernatant was collected. Protein concentrations were quantitated. Whole lysates (15 μg) were resolved by 15% sodium dodecyl sulphate polyacrylamide gel, were transferred to an immobilon polyvinylidene difuride membrane and were probed with anti-p27^kip1 rabbit polyclonal antibody and anti-Actin murine monoclonal antibody. Blots were developed.
(§2) Western Blot Analysis. The cyclin dependent kinase inhibitors known as p21^waf1 and p27^kip1 are able to inhibit the activity of cyclin kinase and thus slow the progression for the cells through the cell cycle. […] Exposure for one day to 1,25(OH)2 -16-ene-5,6-trans-D3 (10^-7 M) increased expression of p21^waf1 and p27^kip1 by about 3.2-3.5 fold, whereas culture with 1,25(OH)2 D3 (10^-7 M) increased expression of p21^waf1 and p27^kip1 about 1.6-1.8 fold. […] 1,25(OH)2 D3 (10^-7 M, 3 days) increased expression of p21^waf1 and p27^kip1 by 4.8 fold and 3.3 fold, respectively.

p27^kip1 [1] = test: Western blot analysis, p27^kip1 in MCF-7 cells; type: cell-based; conditions: Homo sapiens, read-out: increase in expression of p27^kip1
Method: as §1, §2

p27^kip1 [2] = test: Western blot analysis, p27^kip1 in HL-60 cells; type: cell-based
Method: Western Blot Analysis. Cells were washed twice with PBS, suspended in Lysis buffer (50 mM Tris Ph 8.0, 150 mM NaCl, 0.1% SDS, 0.5% sodium deoxycholate, 1% NP40, 100 μg/ml phenylmethylsulfonyl fluoride, 2 μg/ml aprotinin, 1 μg/ml pepstatin and 10 μg/ml leupeptin), and placed on ice for 30 minutes. After centrifugation at 15,000 g for 20 minutes at 4° C., the supernatant was collected. Protein concentrations were quantitated. […] Blots were developed.
The dose-dependent effect of the vitamin D3 compounds on expression of p27^kip1 HL-60 cells was examined.

telomerase = test: Telomerase activity (TRAP assay) in HL-60 cells; type: cell-based; conditions: 4 days
Method: Telomerase Activity. To detect the relative telomerase activity, telomeric repeat amplification protocol (TRAP) assays were performed. For human telomerase reverse transcriptase (hTERT), total RNAs were isolated from HL-cells which were treated with either 1,25(OH)2 D3 or 1,25(OH)2 -16-ene-5,6-trans-D3 (10^- 9 10^-8, and 10^-7 M) for 4 days with a monophasic solution of phenol and guanidine isothiocyanate. RT-PCR was performed with 1 μg of total RNA and random hexamer primers. cDNA was amplified using primers specific for the hTERT gene or the GAPDH gene, which was used as a control. The primers used for hTERT were: 5'-[…]-3' (sense) (SEQ ID NO: 1), and 5'-GGATGAAGCGGAGTCTGGA-3'-(antisense) (SEQ ID NO: 2). The thermal cycles were 94° C. for 90 seconds, followed by 33 cycles of 95° C. for 20 seconds, 68° C. for 40 seconds, and 72° C. for 30 seconds. Primers for the GAPDH gene were: 5'-CCATGGAGAAGGCTGGGG-3' (sense) (SEQ ID NO: 3), and 5'-[…]-3' (antisense) (SEQ ID NO: 4). Conditions for GAPDH amplifications were: 94° C. for 2 minutes, 26 cycles of 94° C. for 30 seconds, 62° C. for 40 seconds, 72° C. for 60 seconds, followed by 72° C. for 4 minutes. […]
Telomerase Activity. The effect of 1,25(OH)2 -16-ene-5,6-trans-D3and 1,25(OH)2 D3 (10^-9 -10^-7 M, 4 days) on telomerase activity was evaluated using the TRAP assay.

hTERT mRNA = hTERT mRNA expression (RT-PCR) in HL-60 cells; type: cell-based, human; conditions: for IC (almost complete): Homo sapiens, read-out: concentration giving almost complete inhibition of hTERT mRNA expression
Method: Telomerase Activity. To detect the relative telomerase activity, telomeric repeat amplification protocol (TRAP) assays were performed. For human telomerase reverse transcriptase (hTERT), total RNAs were isolated from HL-cells which were treated with either 1,25(OH)2 D3 or 1,25(OH)2 -16-ene-5,6-trans-D3 (10^- 9 10^-8, and 10^-7 M) for 4 days with a monophasic solution of phenol and guanidine isothiocyanate. RT-PCR was performed with 1 μg of total RNA and random hexamer primers. cDNA was amplified using primers specific for the hTERT gene or the GAPDH gene, which was used as a control. The primers used for hTERT were: 5'-[…]-3' (sense) (SEQ ID NO: 1), and 5'-GGATGAAGCGGAGTCTGGA-3'-(antisense) (SEQ ID NO: 2). The thermal cycles were 94° C. for 90 seconds, followed by 33 cycles of 95° C. for 20 seconds, 68° C. for 40 seconds, and 72° C. for 30 seconds. Primers for the GAPDH gene were: 5'-CCATGGAGAAGGCTGGGG-3' (sense) (SEQ ID NO: 3), and 5'-[…]-3' (antisense) (SEQ ID NO: 4). Conditions for GAPDH amplifications were: 94° C. for 2 minutes, 26 cycles of 94° C. for 30 seconds, 62° C. for 40 seconds, 72° C. for 60 seconds, followed by 72° C. for 4 minutes. PCR products were electrophoresed on 1% agarose gel and stained with ethidium bromide.
The effects of vitamin D3 analogs on hTERT expression in HL-60 cells was evaluated using RT-PCR.

ventral prostate = test: Antiandrogenic activity in castrated testosterone stimulated hamsters, ventral prostate; type: in vivo, male Syrian hamsters
Method: (§3) 1,25(OH)2 -16-ene-5,6-trans D3 was evaluated for antiandrogenic activity in castrated, testosterone stimulated male Syrian hamsters.
(§4) […] Both compounds were administered in a vehicle of 0.2 ml sesame oil each. Necropsy was performed on day 15. The prostate and seminal vesicles were removed, blotted and weighed. Data were analyzed for statistical significance using the Student's t-test and are expressed as percent inhibition of stimulated response.

seminal vesicles = test: Antiandrogenic activity in castrated testosterone stimulated hamsters, seminal vesicles; type: in vivo, male Syrian hamsters
Method: as §3, §4

left femur (distal half) = test: Total femoral bone calcium in ovariectomized rats; type: in vivo, adult female rats; conditions: ovx rats, 19 days, text: calcium in mg/distal half femur, Ovx/Veh. 10.58
Method: Three month old adult female rats were subjected to bilateral ovariectomy or sham surgery. After a week of acclimatization the animals were weight grouped and treated by oral gavage at 1 mg/kg of specified concentration. Dose volume was calculated weekly using the group average body weight. Dosing started 17 days post surgery and continued for 19 days. On the 20th day animals were euthanized by carbon dioxide inhalation and left femurs excised.
At necropsy the left femurs from all groups were excised and soft tissue removed. The bones were measured and cut in half at mid-diaphysis; then the distal portion was cut in half longitudinally after removal of the epiphysis. The bone marrow was flushed out and the calcium was extracted by immersion in 5% TCA. The calcium content of TCA extracts was determined by using quantitative, colorimetric determination of calcium. The data were expressed as mean total bone calcium in mg/distal half femur (DHF)±serum.

[3] = Serum calcium levels in ovariectomized rats; type: in vivo, adult female rats; conditions: ovx rats, Ovx/Veh. 10.41
Method: Three month old adult female rats were subjected to bilateral ovariectomy or sham surgery. […] Dose volume was calculated weekly using the group average body weight. Dosing started 17 days post surgery and continued for 19 days. On the 20th day animals were euthanized by carbon dioxide inhalation and left femurs excised.
Blood (1.5 ml) was collected from each animal by orbital puncture under ether anesthesia on day 7 and day 18 of dosing. Blood was collected into serum separator tubes, centrifuged at 2000 rpm for 15 min. and then serum aliquoted for calcium determinations. Serum calcium was determined by colorimetric assay.
For a verification of the effect of ovariectomy on bone calcium, the sham and ovx vehicle groups were compared using student's t-test. The ovx groups were compared by one-way analysis of variance (ANOVA), followed by Fisher's LSD to compare each treatment group to vehicle when the overall effect was statistically significant.

[4] = castrated, testosterone stimulated hamsters
[5] = testosterone + 0.1 μg compound s.c. daily, 14 days

For C=C1/C(=C\C=C2/CCC[C@]3(C)[C@@H]([C@H](C)CCCC(C)(C)O)CC[C@@H]23)C[C@@H](O)C[C@@H]1O [1,25(OH)2 D3, reference compound], the fold induction at 0.1 µM (p21^waf1; MCF7, 24 h) was 1.6 to 1.8, the fold induction at 0.1 µM (p21^waf1; MCF7, 72 h) was 4.8 and the fold induction at 0.1 µM (p27^kip1 [1]; MCF7, 24 h) was 1.6 to 1.8. The fold induction at 0.1 µM (p27^kip1 [1]; MCF7, 72 h) was 3.3, the “expression of p27^kip1” value (p27^kip1 [2]) was “up-regulated” and the “levels of p27^kip1” value (p27^kip1 [2]; 10^-8-10^-7 M) was “increased prominently”. The telomerase activity (telomerase; 10^-7 M) was “markedly decreased”, the “expression of hTERT mRNA” value (hTERT mRNA; HL-60 cells, 4 days) was “inhibited the expression of hTERT mRNA in a dose-dependent manner” and the IC (almost complete) (hTERT mRNA; HL-60, 96 h) was 0.1 µM. The “androgen-induced hypertrophy of the ventral prostate gland” value (ventral prostate; non-toxic doses (1 μg)) was “inactive”, the “androgen-induced hypertrophy of the seminal vesicles” value (seminal vesicles; non-toxic doses (1 μg)) was “inactive” and the “Femur CA/100 g BW” value (left femur (distal half); 0.500 μg/kg oral) was 11.91 /100 g BW. For the same compound, the “Serum Calcium” value ([3]; dose printed 0500 μg/kg oral) was 11.74 mg/dL.
In the case of C=C1/C(=C/C=C2\CCC[C@]3(C)C([C@H](C)CCCC(C)(C)O)=CC[C@@H]23)C[C@@H](O)C[C@@H]1O [1,25(OH)2-16-ene-5,6-trans-D3, 1,25-Dihydroxy-16-ene-5,6-trans-cholecalciferol], the fold induction at 0.1 µM (p21^waf1; MCF7, 24 h) is reported as 3.2 to 3.5, the fold induction at 0.1 µM (p21^waf1; MCF7, 72 h) is reported as 2.8 and the fold induction at 0.1 µM (p27^kip1 [1]; MCF7, 24 h) is reported as 3.2 to 3.5. For the same compound, the fold induction at 0.1 µM (p27^kip1 [1]; MCF7, 72 h) was 3.4, the “expression of p27^kip1” value (p27^kip1 [2]) was “up-regulated” and the “expression of p27^kip1” value (p27^kip1 [2]; 4 days, 10^-9 M) was “markedly increased”. The telomerase activity (telomerase; 10^-9 M) was “markedly decreased”, the “expression of hTERT mRNA” value (hTERT mRNA; HL-60 cells, 4 days) was “inhibited the expression of hTERT mRNA in a dose-dependent manner” and the IC (almost complete) (hTERT mRNA; 96 h, HL-60 cells, 4 days) was 0.01 µM. The “androgen-induced hypertrophy of the ventral prostate gland” value (ventral prostate; [4]) was “substantially suppressed”, the “Ventral prostate Inhib. (percent inhibition of stimulated response)” value (ventral prostate; [5]) was 77% and the Ventral prostate weight (ventral prostate; [5]) was 19 ± 2 mg. For the same compound, the “androgen-induced hypertrophy of the seminal vesicles” value (seminal vesicles; [4]) was “substantially suppressed”, the “Seminal vesicles Inhib. (percent inhibition of stimulated response)” value (seminal vesicles; [5]) was 48% and the Seminal vesicles weight (seminal vesicles; testosterone + 0.1 μg compound s.c. daily, 14 days, mg ± SEM) was 71 ± 1 mg. For the same compound, the “Femur CA/100 g BW” value (left femur (distal half); 2.000 μg/kg oral) was 11.49 /100 g BW and the “Serum Calcium” value ([3]; 2.000 μg/kg oral) was 9.98 mg/dL.
